Data as given in patent US11440906B2, “Biguanide derivatives and their rearrangement products for use in the treatment of cancer” (CENTRE NATIONAL DE LA RECHERCHE SCIENTIFIQUE, priority 2017, dated 2022).
Like-named read-outs stand apart in the source and are kept apart here. Blank lines part the entries; values can stand above or below the molecule they belong to.

Tested on: A375 Sensitive cells
Experiment: Viability test, trypan blue exclusion, A375 Sensitive cells
Format: cell-based, human
Conditions: Homo sapiens, A-375; for viability at 5 µM / viability at 10 µM: viable cells as percentage of DMSO control
From the text: Different melanoma cell lines were purchased from the American Tissue Culture Collection: A375 and WM9 cells are mutated on B-Raf, CDKN2A and PTEN proteins; SKmel28 cells are mutated on B-Raf and P53 proteins; 1205Lu cells are mutated on B-Raf and PTEN proteins; G-361 cells are mutated on B-Raf and CDKN2A proteins; C8161 cells are mutated on B-Raf and K-Ras proteins; WM3912 cells are mutated on B-Raf and CDKN2A proteins; MeWo cells are mutated on P53 and CDKN2A proteins; WM3918 presents no mutations on characteristic proteins.
For trypan blue staining, […] of cells (melanoma and normal human cells) were aseptically transferred to a 1.5 mL clear Eppendorf tube and incubated for 3 min at room temperature with an equal volume of 0.4% trypan blue solution. Viable cells were counted and the results are expressed as the percentage of the value of control cells. All the experiments are performed 3 times in triplicate.
A375 Sensitive cells were treated with different concentrations of the synthesized molecules (5.0 μM or 10 μM) for different times (24 hr or 48 hr) or with DMSO (Control) for 12 or 48 hr. At the end of the stimulation, viable cells were counted using the trypan blue dye exclusion method. The results are normalized as percentages compare to the control.
A375 Sensitive cells were treated with 5 μM of CRO15 for different times (2 hr, 4 hr, 6 hr, 8 hr, 12 hr, 24 hr or 48 hr) or with 5 μM of PLX4032 (B-Raf inhibitor) for 48 hr or with DMSO (Control) for 48 hr. At the end of stimulation, viable cells were counted using the trypan blue dye exclusion method. The results are normalized as percentages compare to the control and data means±SEM of three independent experiments performed in triplicate *p<0.05; **p<0.01; ***p<0.001.
A375 Sensitive cells were treated with different concentrations of CRO15 (0.5 μM, 2.5 μM, 5.0 μM, 7.5 μM, 50 μM) for 48 hr or with 5 μM of PLX4032 (B-Raf inhibitor) for 48 hr or with DMSO (Control) for 48 hr. At the end of the stimulation, viable cells were counted using the trypan blue dye exclusion method. The results are normalized as percentages compare to the control and data means±SEM of three independent experiments performed in triplicate *p<0.05; **p<0.01; ***p<0.001.
A375 sensitive and resistant melanoma cells were treated with 5 μM of CRO15 for 48 hr or with 5 μM of PLX4032 for 48 hr or with DMSO (Control). At 48 hours, viable cells were counted using the trypan blue dye exclusion method. The results are normalized as percentages compare to the control and data means±SEM of three independent experiments performed in triplicate *p<0.05; **p<0.01; ***p<0.001.

[1] = 24 h, read-out: Viab A375 5 μM/ 24 h
[2] = 48 h, read-out: Viab A375 5 μM/ 48 h
[3] = 24 h, read-out: Viab A375 10 μM/ 24 h
[4] = 48 h, read-out: Viab A375 10 μM/ 48 h

SMILES: COc1ccc(Nc2nc(N)nc(C(Cl)(Cl)Cl)n2)c(SSc2cc(OC)ccc2Nc2nc(N)nc(C(Cl)(Cl)Cl)n2)c1 [MTF 232, N2,N2′-(disulfanediylbis(4-methoxy-2,1-phenylene))bis(6-(trichloromethyl)-1,3,5-triazine-2,4-diamine)]
viability at 5 µM [1]: 83.3% | viability at 5 µM [2]: 24.9% | viability at 10 µM [3]: 33.9% | viability at 10 µM [4]: 16.4 ± 4.9%

SMILES: Nc1nc(Nc2ccc(Cl)cc2SSc2cc(Cl)ccc2Nc2nc(N)nc(C(Cl)(Cl)Cl)n2)nc(C(Cl)(Cl)Cl)n1 [MTF 233, N2,N2′-(disulfanediylbis(4-chloro-2,1-phenylene))bis(6-(trichloromethyl)-1,3,5-triazine-2,4-diamine)]
viability at 5 µM [1]: 13.9% | viability at 5 µM [2]: 8.9% | viability at 10 µM [3]: 7% | viability at 10 µM [4]: 4.7%

SMILES: Nc1nc(Nc2ccc(F)cc2SSc2cc(F)ccc2Nc2nc(N)nc(C(Cl)(Cl)Cl)n2)nc(C(Cl)(Cl)Cl)n1 [MTF 234, N2,N2′-(disulfanediylbis(4-fluoro-2,1-phenylene))bis(6-(trichloromethyl)-1,3,5-triazine-2,4-diamine)]
viability at 5 µM [1]: 29.6% | viability at 5 µM [2]: 17.4% | viability at 10 µM [3]: 9.6% | viability at 10 µM [4]: 7.8%

SMILES: N=C(NC(=N)c1cccc(Br)c1)Nc1nc2ccccc2s1 [MTF 242, N—(N-(benzo[d]thiazol-2-yl)carbamimidoyl)-3-bromobenzimidamide]
viability at 5 µM [1]: 29.2% | viability at 5 µM [2]: 8.1% | viability at 10 µM [3]: 13.4% | viability at 10 µM [4]: 2.9%

SMILES: N=C(NC(=N)c1cccc(Cl)c1)Nc1nc2ccccc2s1 [MTF 243, N—(N-(benzo[d]thiazol-2-yl)carbamimidoyl)-3-chlorobenzimidamide]
viability at 5 µM [1]: 22.1% | viability at 5 µM [2]: 7% | viability at 10 µM [3]: 12.1% | viability at 10 µM [4]: 2.7%

SMILES: N=C(NC(=N)c1ccccc1Cl)Nc1nc2ccccc2s1 [MTF 244, N—(N-(benzo[d]thiazol-2-yl)carbamimidoyl)-2-chlorobenzimidamide]
viability at 5 µM [1]: 81.6% | viability at 5 µM [2]: 68% | viability at 10 µM [3]: 84.9% | viability at 10 µM [4]: 68.4%

SMILES: N=C(NC(=N)c1ccc(Cl)cc1)Nc1nc2ccccc2s1 [MTF 245, N—(N-(benzo[d]thiazol-2-yl)carbamimidoyl)-4-chlorobenzimidamide]
viability at 5 µM [1]: 95% | viability at 5 µM [2]: 100% | viability at 10 µM [3]: 83% | viability at 10 µM [4]: 79.6%

SMILES: Cc1ccc(C(=N)NC(=N)Nc2nc3ccccc3s2)cc1 [MTF 246, N—(N-(benzo[d]thiazol-2-yl)carbamimidoyl)-4-methylbenzimidamide]
viability at 5 µM [1]: 137% | viability at 5 µM [2]: 91% | viability at 10 µM [3]: 94% | viability at 10 µM [4]: 115%

SMILES: N=C(NC(=N)c1ccc(I)cc1)Nc1nc2ccccc2s1 [MTF 247, N—(N-(benzo[d]thiazol-2-yl)carbamimidoyl)-4-iodobenzimidamide]
viability at 5 µM [1]: 100% | viability at 5 µM [2]: 135% | viability at 10 µM [3]: 122% | viability at 10 µM [4]: 100%

SMILES: N=C(NC(=N)c1ccccc1)Nc1nc2ccccc2s1 [MTF 248, N—(N-(benzo[d]thiazol-2-yl)carbamimidoyl)benzimidamide]
viability at 5 µM [1]: 100% | viability at 5 µM [2]: 100% | viability at 10 µM [3]: 80% | viability at 10 µM [4]: 138%

SMILES: N=C(NC(=N)c1ccccc1F)Nc1nc2ccccc2s1 [MTF 249, N—(N-(benzo[d]thiazol-2-yl)carbamimidoyl)-2-fluorobenzimidamide]
viability at 5 µM [1]: 25.4% | viability at 5 µM [2]: 10.6% | viability at 10 µM [3]: 14.4% | viability at 10 µM [4]: 8.9%

SMILES: N=C(NC(=N)c1ccccc1Br)Nc1nc2ccccc2s1 [MTF 250, N—(N-(benzo[d]thiazol-2-yl)carbamimidoyl)-2-bromobenzimidamide]
viability at 5 µM [1]: 25.4% | viability at 5 µM [2]: 8.9% | viability at 10 µM [3]: 12% | viability at 10 µM [4]: 2.4%

SMILES: N=C(NC(=N)c1ccccn1)Nc1nc2ccccc2s1 [MTF 251, N—(N-(benzo[d]thiazol-2-yl)carbamimidoyl)picolinimidamide]
viability at 5 µM [1]: 48.9% | viability at 5 µM [2]: 44.7% | viability at 10 µM [3]: 45.1% | viability at 10 µM [4]: 19.5%

SMILES: N=C(NC(=N)c1cccnc1)Nc1nc2ccccc2s1 [MTF 252, N—(N-(benzo[d]thiazol-2-yl)carbamimidoyl)nicotinimidamide]
viability at 5 µM [1]: 8.6% | viability at 5 µM [2]: 5.2% | viability at 10 µM [3]: 12.9% | viability at 10 µM [4]: 2.6%

SMILES: N=C(NC(=N)c1ccncc1)Nc1nc2ccccc2s1 [MTF 253, N—(N-(benzo[d]thiazol-2-yl)carbamimidoyl)isonicotinimidamide]
viability at 5 µM [1]: 27.8% | viability at 5 µM [2]: 6.9% | viability at 10 µM [3]: 14.9% | viability at 10 µM [4]: 4.1%

SMILES: COc1ccc(C(=N)NC(=N)Nc2nc3ccccc3s2)cc1 [MTF 254, N—(N-(benzo[d]thiazol-2-yl)carbamimidoyl)-4-methoxybenzimidamide]
viability at 5 µM [1]: 100% | viability at 5 µM [2]: 100% | viability at 10 µM [3]: 100% | viability at 10 µM [4]: 100%

IC50 (A375, printed in the 10 μM/24 h column of Table 1, read-out: IC50 (converted)): 2300 nM
SMILES: CC(=O)c1cccc(C(=N)NC(=N)Nc2nc3ccccc3s2)c1 [MTF 255, 3-acetyl-N—(N-(benzo[d]thiazol-2-yl)carbamimidoyl)benzimidamide]
viability at 5 µM [1]: 26.1% | viability at 5 µM [2]: 4.7% | viability at 10 µM [3]: 3.2% | viability at 10 µM [4]: 3.8%

SMILES: N=C(NC(=N)c1cccc(Br)c1)Nc1nc(-c2ccccc2)cs1 [MTF 256, 3-bromo-N—(N-(4-phenylthiazol-2-yl)carbamimidoyl)benzimidamide]
viability at 5 µM [1]: 93.9% | viability at 5 µM [2]: 60% | viability at 10 µM [3]: 66% | viability at 10 µM [4]: 95.7%

SMILES: N=C(NC(=N)c1cccc(Br)c1)Nc1nc(-c2cccc([N+](=O)[O-])c2)cs1 [MTF 257, 3-bromo-N—(N-(4-(3-nitrophenyl)thiazol-2-yl)carbamimidoyl)benzimidamide]
viability at 5 µM [1]: 100% | viability at 5 µM [2]: 80.5% | viability at 10 µM [3]: 106% | viability at 10 µM [4]: 62%

SMILES: N=C(NC(=N)c1ccccn1)Nc1nc(-c2cccc([N+](=O)[O-])c2)cs1 [MTF 259, N—(N-(4-(3-nitrophenyl)thiazol-2-yl)carbamimidoyl)picolinimidamide]
viability at 5 µM [1]: 157% | viability at 5 µM [2]: 95.7% | viability at 10 µM [3]: 98% | viability at 10 µM [4]: 96.5%

SMILES: N=C(NC(=N)c1cccnc1)Nc1nc(-c2cccc([N+](=O)[O-])c2)cs1 [MTF 260, N—(N-(4-(3-nitrophenyl)thiazol-2-yl)carbamimidoyl)nicotinimidamide]
viability at 5 µM [1]: 57% | viability at 5 µM [2]: 32% | viability at 10 µM [3]: 76.7% | viability at 10 µM [4]: 78%

SMILES: N=C(NC(=N)c1ccncc1)Nc1nc(-c2cccc([N+](=O)[O-])c2)cs1 [MTF 261, N—(N-(4-(3-nitrophenyl)thiazol-2-yl)carbamimidoyl)isonicotinimidamide]
viability at 5 µM [1]: 24.6% | viability at 5 µM [2]: 63.6% | viability at 10 µM [3]: 71.9% | viability at 10 µM [4]: 115%

SMILES: COc1ccc(C(=N)NC(=N)Nc2nc(-c3ccccc3)cs2)cc1 [MTF 262, 4-methoxy-N—(N-(4-phenylthiazol-2-yl)carbamimidoyl)benzimidamide]
viability at 5 µM [1]: 61.4% | viability at 5 µM [2]: 43.7% | viability at 10 µM [3]: 40.8% | viability at 10 µM [4]: 27.3%

SMILES: N=C(NC(=N)c1ccccn1)Nc1nc(-c2ccccc2)cs1 [MTF 263, N—(N-(4-phenylthiazol-2-yl)carbamimidoyl)picolinimidamide]
viability at 5 µM [1]: 89.5% | viability at 5 µM [2]: 91% | viability at 10 µM [3]: 100% | viability at 10 µM [4]: 66%

SMILES: COc1ccc2nc(NC(=N)NC(=N)c3cccc(Br)c3)sc2c1 [MTF 264, 3-bromo-N—(N-(6-methoxybenzo[d]thiazol-2-yl)carbamimidoyl)benzimidamide]
viability at 5 µM [1]: 87% | viability at 10 µM [3]: 89% | viability at 10 µM [4]: 99%
